Test results as given in publication PMC9425435, “Antiviral Profiling of C-18- or C-19-Functionalized Semisynthetic Abietane Diterpenoids” (Journal of Natural Products, 2022).

What was measured:
[1] = system: ZIKV (Zika virus); assay: Plaque reduction assay (PFU), ZIKV in Vero E6; type: cell-based
[2] = system: DENV-2 (Dengue virus type 2); assay: Plaque reduction assay (PFU), DENV-2 in BHK21; type: cell-based; settings: DENV-2, BHK21, PFU/well 150 ± 25
[3] = system: CHIKV (Chikungunya virus); assay: End-point titration technique (EPTT), viral titer reduction factor, CHIKV in Vero E6; type: cell-based; settings: Vero E6, 10TCID50, EPTT
[4] = system: ZIKV/Col; assay: Quantification of infectious viral particles by plaque assay, ZIKV/Col post-treatment; type: cell-based, Zika virus; settings: for percentage of infection (infectious viral particles, plaque assay): ZIKV/Col, Vero cells, post-treated, vs untreated control 100%
[5] = system: ZIKV/Col; assay: Quantification of intracellular viral genome by qRT-PCR, ZIKV/Col; type: cell-based, Zika virus
[6] = system: ZIKV/Col; assay: Intracellular quantification of viral protein by cell-ELISA, ZIKV/Col; type: cell-based, Zika virus; settings: all concentrations evaluated (3.1-25.0 μg/mL)
[7] = system: Colombian Zika virus strains; assay: Anti-Zika EC50 summarised over Colombian strains (abstract); type: cell-based; settings: read-out: EC50 against Colombian Zika virus strains
[8] = system: DENV-2; settings: postinfection stages; cited from earlier work
[9] = system: herpes virus type 2 (HHV-2); settings: cited from earlier work
[10] = MTT cytotoxicity assay (CC50); settings: chlorocebus sabaeus
[11] = system: Vero-E6 cells; assay: Cytotoxicity CC100 in Vero-E6 cells (72 h); settings: Vero-E6 cells, 72h
[12] = system: BHK-21 cells; assay: Cytotoxicity CC100 in BHK-21 cells (6 days)
[13] = system: endemic chikungunya virus of Colombian origin; assay: Post-infection stage evaluation assay (plaque), CHIKV
[14] = system: Zika_459148 virus strain; assay: Post-infection stage evaluation assay (plaque), Zika_459148
[15] = system: ZIKV strain (COL345Si); assay: Post-infection stage evaluation assay (plaque), ZIKV COL345Si

CC(C)c1cc2c(cc1O)[C@@]1(C)CCC[C@@](C)(CN3C(=O)c4ccccc4C3=O)[C@@H]1CC2 [Compound 6, 18-(phthalimid-2-yl)ferruginol]
Nontoxic concentration that showed a higher viral reduction factor, in μM ([1]; ZIKV PFU assay, conversion of 3.1 μg/mL): ca. 7.2 μM | % inhibition (PFU) ([1]; ZIKV, Vero E6, PFU/well 150 ± 25): 52 ± 13% | % inhibition (PFU) [2]: 91 ± 7% | Rf (reduction factor of the viral titer) [3]: 10^2 | percentage of infection (infectious viral particles, plaque assay) ([4]; 3.1 μg/mL): 62.7% | percentage of infection (infectious viral particles, plaque assay) ([4]; 6.2 μg/mL): 31.3% | percentage of infection (infectious viral particles, plaque assay) ([4]; 12.5 μg/mL): 20.9% | percentage of infection (infectious viral particles, plaque assay) ([4]; 25.0 μg/mL): 7.0% | EC50 ([4]; Zika virus, read-out: EC50 ZIKV/Col): 9.9 µM | number of genome copies/mL, percentage of untreated control ([5]; 3.1 μg/mL): 125.9% | replication of viral genome ([5]; cultures treated with 6.2, 12.5, and 25.0 μg/mL): significantly inhibited | viral protein production, percentages of infection [6]: below 50% | EC50 [7]: 5 to 10 µM | EC50 [8]: 1.4 µM | EC50 [9]: 19.2 µM | CC50 at 72 h [10]: 192 µM | CC50 at 144 h [10]: 80.8 µM | CC100 (100% cytotoxic concentration) [11]: >50 µg/mL | CC100 (100% cytotoxic concentration) [12]: >50 µg/mL | SI (CC50/EC50) ([13]; CHIKV): 19.6 | EC50 ([13]; Chikungunya virus, read-out: EC50 chikungunya virus): 9.8 µM | EC50 ([14]; Zika virus, Vero C1008, 72 h, read-out: EC50 anti-Zika_459148 virus): 6.3 ± 2.7 µM | SI (CC50/EC50) ([14]; Zika_459148, 72 h): 30 | SI (CC50/EC50) ([15]; ZIKV COL345Si, 6 days): 15 | EC50 ([15]; Zika virus, 144 h, read-out: EC50 ZIKV strain COL345Si): 5.3 ± 2.9 µM
